Experimental data as given in patent US9573987B2 (priority 2011, dated 2017).

Legend:
[1] = target: insulin receptor (Homo sapiens, UniProt P06213); assay: Insulin receptor binding assay (competition, scintillation proximity); set-up: expressed in transfected cells; plasma membrane fragments; details: Table 9
[2] = target: T1, IGF-1 receptor (Homo sapiens, UniProt P08069); assay: IGF-1 receptor phosphorylation assay, receptor transfected HEK293 cells; type: cell-based; set-up: expressed in transfected cells; host or cells: HEK293
Procedure: Color development was stopped 5 min later by adding 0.05 ml 1 N HCl. Absorbance at 450 nm was measured on Titertek Multiscan MCC340 (ThermoFisher, Pittsburgh, Pa.).

[3] = target: T1, IGF-1 receptor; assay: IGF-1 receptor binding assay (competition, scintillation proximity); set-up: expressed in transfected cells; plasma membrane fragments; details: Table 9
[4] = target: T2, insulin subtype A receptor (IR-A) (Homo sapiens, UniProt P06213); assay: Insulin subtype A receptor phosphorylation, receptor transfected HEK293 cells; type: cell-based; details: for IC50: read-out: Phosphorylation at Insulin Receptor Subtype A (IC50), Table 16A
T2 construct: expressed in transfected cells; host or cells: HEK293
Procedure: (§1) Color development was stopped 5 min later by adding 0.05 ml 1 N HCl. Absorbance at 450 nm was measured on Titertek Multiscan MCC340 (ThermoFisher, Pittsburgh, Pa.). […]

[5] = target: insulin subtype B receptor (IR-B) (Homo sapiens, UniProt P06213); assay: Insulin subtype B receptor phosphorylation, receptor transfected HEK293 cells; type: cell-based; set-up: expressed in transfected cells; host or cells: HEK293; details: read-out: Phosphorylation at Insulin Receptor Subtype B (IC50); Table 16B
Procedure: as §1

T1 sequence (P08069 31-736 limits assumed): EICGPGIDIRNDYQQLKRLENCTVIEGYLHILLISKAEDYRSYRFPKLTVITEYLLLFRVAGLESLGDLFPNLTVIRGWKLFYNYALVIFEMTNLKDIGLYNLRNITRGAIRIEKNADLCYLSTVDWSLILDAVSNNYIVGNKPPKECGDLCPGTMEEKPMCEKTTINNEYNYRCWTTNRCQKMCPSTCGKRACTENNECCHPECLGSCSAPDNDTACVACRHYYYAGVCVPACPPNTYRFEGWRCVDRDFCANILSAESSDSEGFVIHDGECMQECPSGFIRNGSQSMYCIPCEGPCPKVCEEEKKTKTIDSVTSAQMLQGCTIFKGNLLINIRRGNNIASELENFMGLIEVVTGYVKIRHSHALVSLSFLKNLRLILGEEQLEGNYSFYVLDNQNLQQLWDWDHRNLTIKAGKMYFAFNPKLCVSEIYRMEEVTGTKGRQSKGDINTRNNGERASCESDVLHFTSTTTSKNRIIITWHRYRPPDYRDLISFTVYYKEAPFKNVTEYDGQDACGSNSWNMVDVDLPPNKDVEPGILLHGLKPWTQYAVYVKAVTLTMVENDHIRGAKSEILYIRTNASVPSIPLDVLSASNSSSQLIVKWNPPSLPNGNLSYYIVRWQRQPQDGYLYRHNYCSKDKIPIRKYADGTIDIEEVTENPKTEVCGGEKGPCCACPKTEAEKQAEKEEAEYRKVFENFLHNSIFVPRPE
T1 sequence (P08069 741-1367 partner limits assumed): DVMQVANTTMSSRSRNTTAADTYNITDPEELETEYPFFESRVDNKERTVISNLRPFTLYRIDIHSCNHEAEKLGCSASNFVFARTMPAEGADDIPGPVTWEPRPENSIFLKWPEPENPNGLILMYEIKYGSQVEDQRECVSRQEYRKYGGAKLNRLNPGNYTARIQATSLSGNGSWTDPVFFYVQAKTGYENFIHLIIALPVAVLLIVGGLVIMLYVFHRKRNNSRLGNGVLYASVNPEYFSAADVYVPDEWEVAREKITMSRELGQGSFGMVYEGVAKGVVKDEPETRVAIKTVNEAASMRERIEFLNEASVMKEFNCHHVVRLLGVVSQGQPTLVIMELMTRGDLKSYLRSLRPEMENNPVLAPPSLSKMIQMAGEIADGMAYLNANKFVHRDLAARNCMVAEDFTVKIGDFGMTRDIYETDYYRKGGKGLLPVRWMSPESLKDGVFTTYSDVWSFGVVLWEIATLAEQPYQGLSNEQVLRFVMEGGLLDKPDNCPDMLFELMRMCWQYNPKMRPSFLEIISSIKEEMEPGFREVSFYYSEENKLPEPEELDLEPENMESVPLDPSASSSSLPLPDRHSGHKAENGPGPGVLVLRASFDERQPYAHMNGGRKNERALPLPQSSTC

IC50 [4] | IC50 [5] | Molecule | Insulin Receptor % insulin (in test) [1] | other results
 |  | CC[C@H](C)[C@H](NC(=O)CN)C(=O)N[C@H](C(=O)N[C@@H](CC(=O)O)C(=O)N[C@@H](CCC(=O)O)C(=O)N[C@H]1CSSC[C@@H]2NC(=O)[C@H](CO)NC(=O)[C@H](C)NC(=O)[C@H](Cc3c[nH]cn3)NC(=O)[C@H](CSSC[C@H](NC(=O)[C@H](CC(C)C)NC(=O)[C@H](Cc3c[nH]cn3)NC(=O)[C@H](CCC(=O)O)NC(=O)[C@@H]3CCCN3C(=O)CN)C(=O)NCC(=O)N[C@@H](C)C(=O)N[C@@H](CC(=O)O)C(=O)N[C@@H](CC(C)C)C(=O)N[C@@H](C(C)C)C(=O)N[C@@H](CC(=O)O)C(=O)N[C@@H](C)C(=O)N[C@@H](CC(C)C)C(=O)N[C@@H](Cc3ccc(O)cc3)C(=O)N[C@@H](CC(C)C)C(=O)N[C@@H](C(C)C)C(=O)N[C@H](C(=O)NCC(=O)N[C@@H](CC(=O)O)C(=O)N[C@@H](C)C(=O)NCC(=O)N[C@@H](Cc3ccccc3)C(=O)N[C@@H](Cc3ccc(O)cc3)C(N)=O)CSSC[C@@H](C(=O)N[C@@H](CC(N)=O)C(=O)O)NC(=O)[C@H](Cc3ccc(O)cc3)NC(=O)[C@H](CCSC)NC(=O)[C@H](CCC(=O)O)NC(=O)[C@H](CC(C)C)NC(=O)[C@H](CCCNC(=N)N)NC(=O)[C@H](CCCNC(=N)N)NC(=O)[C@H](CC(C)C)NC(=O)[C@H](CC(=O)O)NC2=O)NC1=O)C(C)C | 1171.4% | EC50 [2]: 11.3 nM; IGF-1 Receptor % IGF ([2]; Table 10): 7.7%; IGF-1 Receptor % IGF-1 (in test) [3]: 2.3%
 |  | CC[C@H](C)[C@H](NC(=O)CN)C(=O)N[C@H](C(=O)N[C@@H](CC(=O)O)C(=O)N[C@@H](CCC(=O)O)C(=O)N[C@H]1CSSC[C@@H]2NC(=O)[C@H](CO)NC(=O)[C@H](C)NC(=O)[C@H](Cc3c[nH]cn3)NC(=O)[C@H](CSSC[C@H](NC(=O)[C@H](CC(C)C)NC(=O)[C@H](Cc3c[nH]cn3)NC(=O)[C@H](CCC(=O)O)NC(=O)[C@@H]3CCCN3C(=O)CN)C(=O)NCC(=O)N[C@@H](C)C(=O)N[C@@H](CC(=O)O)C(=O)N[C@@H](CC(C)C)C(=O)N[C@@H](C(C)C)C(=O)N[C@@H](CC(=O)O)C(=O)N[C@@H](C)C(=O)N[C@@H](CC(C)C)C(=O)N[C@@H](Cc3ccc(O)cc3)C(=O)N[C@@H](CC(C)C)C(=O)N[C@@H](C(C)C)C(=O)N[C@H](C(=O)NCC(=O)N[C@@H](CC(=O)O)C(=O)N[C@@H](C)C(=O)NCC(=O)N[C@@H](Cc3ccccc3)C(=O)N[C@@H](Cc3ccc(O)cc3)C(N)=O)CSSC[C@@H](C(=O)N[C@@H](CC(N)=O)C(=O)O)NC(=O)[C@H](Cc3ccc(O)cc3)NC(=O)[C@H](CC[S+](C)[O-])NC(=O)[C@H](CCC(=O)O)NC(=O)[C@H](CC(C)C)NC(=O)[C@H](CCCNC(=N)N)NC(=O)[C@H](CCCNC(=N)N)NC(=O)[C@H](CC(C)C)NC(=O)[C@H](CC(=O)O)NC2=O)NC1=O)C(C)C (stereo partly shown) | 400.7% | 
 |  | CC[C@H](C)[C@H](NC(=O)CN)C(=O)N[C@H](C(=O)N[C@@H](CC(=O)O)C(=O)N[C@@H](CCC(=O)O)C(=O)N[C@H]1CSSC[C@@H]2NC(=O)[C@H](CO)NC(=O)[C@H](CCCNC(=N)N)NC(=O)[C@H](Cc3ccccc3)NC(=O)[C@H](CSSC[C@H](NC(=O)[C@H](CC(C)C)NC(=O)[C@@H](NC(=O)[C@H](CCC(=O)O)NC(=O)[C@@H]3CCCN3C(=O)CN)[C@@H](C)O)C(=O)NCC(=O)N[C@@H](C)C(=O)N[C@@H](CCC(=O)O)C(=O)N[C@@H](CC(C)C)C(=O)N[C@@H](C(C)C)C(=O)N[C@@H](CC(=O)O)C(=O)N[C@@H](C)C(=O)N[C@@H](CC(C)C)C(=O)N[C@@H](Cc3ccc(O)cc3)C(=O)N[C@@H](CC(C)C)C(=O)N[C@@H](C(C)C)C(=O)N[C@H](C(=O)NCC(=O)N[C@@H](CC(=O)O)C(=O)N[C@@H](CCCNC(=N)N)C(=O)NCC(=O)N[C@@H](Cc3ccccc3)C(=O)N[C@@H](Cc3ccc(O)cc3)C(N)=O)CSSC[C@@H](C(=O)N[C@@H](C)C(N)=O)NC(=O)[C@H](Cc3ccc(O)cc3)NC(=O)[C@H](CCSC)NC(=O)[C@H](CCC(=O)O)NC(=O)[C@H](CC(C)C)NC(=O)[C@H](CCCNC(=N)N)NC(=O)[C@H](CCCNC(=N)N)NC(=O)[C@H](CC(C)C)NC(=O)[C@H](CC(=O)O)NC2=O)NC1=O)C(C)C [IGF-1 A:B (E10Y16L17) DPI] |  | IGF-1 Receptor % IGF-1 (in test) [3]: 3.3%
 |  | CC[C@H](C)[C@H](NC(=O)CN)C(=O)N[C@H](C(=O)N[C@@H](CC(=O)O)C(=O)N[C@@H](CCC(=O)O)C(=O)N[C@H]1CSSC[C@@H]2NC(=O)[C@H](CO)NC(=O)[C@H](CCCNC(=N)N)NC(=O)[C@H](Cc3ccccc3)NC(=O)[C@H](CSSC[C@H](NC(=O)[C@H](CC(C)C)NC(=O)[C@H](Cc3c[nH]cn3)NC(=O)[C@H](CCC(=O)O)NC(=O)[C@@H]3CCCN3C(=O)CN)C(=O)NCC(=O)N[C@@H](C)C(=O)N[C@@H](CC(=O)O)C(=O)N[C@@H](CC(C)C)C(=O)N[C@@H](C(C)C)C(=O)N[C@@H](CC(=O)O)C(=O)N[C@@H](C)C(=O)N[C@@H](CC(C)C)C(=O)N[C@@H](Cc3ccc(O)cc3)C(=O)N[C@@H](CC(C)C)C(=O)N[C@@H](C(C)C)C(=O)N[C@H](C(=O)NCC(=O)N[C@@H](CC(=O)O)C(=O)N[C@@H](CCCNC(=N)N)C(=O)NCC(=O)N[C@@H](Cc3ccccc3)C(=O)N[C@@H](Cc3ccc(O)cc3)C(N)=O)CSSC[C@@H](C(=O)N[C@@H](C)C(N)=O)NC(=O)[C@H](Cc3ccc(O)cc3)NC(=O)[C@H](CC[S+](C)[O-])NC(=O)[C@H](CCC(=O)O)NC(=O)[C@H](CC(C)C)NC(=O)[C@H](CCCNC(=N)N)NC(=O)[C@H](CCCNC(=N)N)NC(=O)[C@H](CC(C)C)NC(=O)[C@H](CC(=O)O)NC2=O)NC1=O)C(C)C (stereo partly shown) [IGF-1 A:B (H5D10Y16L17) (S═O)DPI] | 316.0% | 
 |  | CC[C@H](C)[C@H](NC(=O)CN)C(=O)N[C@H](C(=O)N[C@@H](CC(=O)O)C(=O)N[C@@H](CCC(=O)O)C(=O)N[C@H]1CSSC[C@@H]2NC(=O)[C@H](CO)NC(=O)[C@H](CCCNC(=N)N)NC(=O)[C@H](Cc3ccccc3)NC(=O)[C@H](CSSC[C@H](NC(=O)[C@H](CC(C)C)NC(=O)[C@@H](NC(=O)[C@H](CCC(=O)O)NC(=O)[C@@H]3CCCN3C(=O)CN)[C@@H](C)O)C(=O)NCC(=O)N[C@@H](C)C(=O)N[C@@H](CCC(=O)O)C(=O)N[C@@H](CC(C)C)C(=O)N[C@@H](C(C)C)C(=O)N[C@@H](CC(=O)O)C(=O)N[C@@H](C)C(=O)N[C@@H](CC(C)C)C(=O)N[C@@H](CCC(N)=O)C(=O)N[C@@H](Cc3ccccc3)C(=O)N[C@@H](C(C)C)C(=O)N[C@H](C(=O)NCC(=O)N[C@@H](CC(=O)O)C(=O)N[C@@H](CCCNC(=N)N)C(=O)NCC(=O)N[C@@H](Cc3ccccc3)C(=O)N[C@@H](Cc3ccc(O)cc3)C(=O)N[C@@H](Cc3ccccc3)C(=O)N[C@@H](CC(N)=O)C(=O)N[C@@H](CCCCN)C(=O)N3CCC[C@H]3C(=O)N[C@H](C(N)=O)[C@@H](C)O)CSSC[C@@H](C(=O)N[C@@H](C)C(N)=O)NC(=O)[C@H](Cc3ccc(O)cc3)NC(=O)[C@H](CCSC)NC(=O)[C@H](CCC(=O)O)NC(=O)[C@H](CC(C)C)NC(=O)[C@H](CCCNC(=N)N)NC(=O)[C@H](CCCNC(=N)N)NC(=O)[C@H](CC(C)C)NC(=O)[C@H](CC(=O)O)NC2=O)NC1=O)C(C)C [IGF-1 A:B] | 5.8% | Insulin Receptor % native insulin activity (0.6 nM) [1]: 5.8%
8.08 nM | 2.46 nM | DP20 random: CTP linker sequence randomized; linking peptide PPRPPQSASPPDLSPLSGTPSRPSLS; SEQ ID NO: 69 (listed as Homo sapiens) |  | 
11.8 nM | 7.44 nM | DP20, S2A: CTP linking peptide wherein the serines have been replaced with alanine (SEQ ID NO: 80) (protein, listed as Homo sapiens) GEEEEEKGPEHLCGAHLVDALYLVCGDRGFYAAAARAPPPALPAPARLPGPADTPILPQKGIVDECCHRSCDLRRLENYCN |  | 
84.3 nM | 35.4 nM | DP-20, C^0: DP20 structure with the native proinsulin C peptide as the linking peptide (protein) GEEEEEKGPEHLCGAHLVDALYLVCGDRGFYRREAEDLQVGQVELGGGPGAGSLQPLALEGSLQRKGIVDECCHRSCDLRRLENYCN |  | 
 |  | DP20 P to A: CTP linking peptide wherein the prolines have been replaced with alanine (SEQ ID NO: 70) (protein, listed as Homo sapiens) GEEEEEKGPEHLCGAHLVDALYLVCGDRGFYSSSSRAAAASLASASRLAGASDTAILAQKGIVDECCHRSCDLRRLENYCN |  | in vitro phosphorylation activity at the insulin subtype A receptor (result in words) ([4]; FIGS. 21, 23): appreciable activity at the insulin receptor, equivalent to that of native IGF-1
